According to US9290777B2, “Putative cytokinin receptor and methods for use thereof” (NATIONAL UNIVERSITY OF SINGAPORE, priority 2007, dated 2016):

How the values were obtained:
[1] = test system: ARR4; test: qRT-PCR of cytokinin responsive gene after BA pulse, fold change vs untreated wild type; assay type: cell-based, Arabidopsis thaliana
[2] = test system: ARR1 and ARR2; test: qRT-PCR of type-B ARRs after BA treatment; assay type: cell-based, Arabidopsis thaliana; settings: transgenic lines
Description: For quantitative real-time PCR (qRT-PCR) analysis of cytokinin-inducible gene expression, seeds were germinated on MS medium with 3% (w/v) sucrose and grown for 6 days. Cytokinin treatment was carried out by incubating seedlings in the same MS+sucrose liquid medium (no agar) supplemented with 0, 0.01, 0.1, 1 or 5 μM [solubilized in 0.1% dimethylsulfoxide (DMSO) and diluted with the MS medium] for 5 min, 15 min, 30 min or 1 h. The control seedlings were incubated with DMSO (0.1%, the concentration used to dissolve cytokinins for the treatment) for the corresponding durations and used for expression analysis. Before RNA preparation, WT, OE and AS seedlings were pooled and stored in RNAlater solution (Qiagen, Valencia, Calif.). Total RNA was extracted using the Rneasy Plant Mini Kit (Qiagen). SYBRgreen RT-PCR reagents (Applied Biosystems) were used to synthesize double-stranded cDNA. The number of transcripts present in biological replicates each of WT, OE and AS seedlings, with or without BA and DMSO, was determined from three independent replicates. Fold induction of the transcripts was calculated according to the manufacturer's instructions (ABI Prism 7700 Sequence Detection System, User Bulletin #2).

[3] = biological target: T1, purified TAP-HOG1 (Arabidopsis thaliana, UniProt O23255); test: biochemical; assay type: binding; settings: ITC, ligand injected into purified TAP-HOG1; KD = 1/KA; read-out: KD (dissociation constant)
T1 construct: Protein A (ProtA part of the TAP tag, TEV site between ProtA and CBP) (N, cleaved yes); made in house; host or cells: transgenic Arabidopsis thaliana harbouring 35S:TAP-HOG1
T1 sequence (O23255 other isoform, or with tags, fused parts or gaps with the stated changes): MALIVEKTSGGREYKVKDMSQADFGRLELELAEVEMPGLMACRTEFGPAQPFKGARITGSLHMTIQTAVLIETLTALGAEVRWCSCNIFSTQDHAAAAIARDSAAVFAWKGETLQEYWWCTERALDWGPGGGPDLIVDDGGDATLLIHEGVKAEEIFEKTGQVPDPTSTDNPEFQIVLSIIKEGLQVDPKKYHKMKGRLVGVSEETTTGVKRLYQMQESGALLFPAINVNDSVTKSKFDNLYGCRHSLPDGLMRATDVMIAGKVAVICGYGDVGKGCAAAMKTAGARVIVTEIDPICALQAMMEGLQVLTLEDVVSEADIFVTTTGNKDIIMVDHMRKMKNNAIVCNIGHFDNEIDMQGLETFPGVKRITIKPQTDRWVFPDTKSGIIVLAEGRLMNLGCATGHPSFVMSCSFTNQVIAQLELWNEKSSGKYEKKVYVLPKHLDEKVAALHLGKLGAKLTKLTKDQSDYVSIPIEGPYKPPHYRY
Description: Cytokinin binding affinity and thermodynamic analysis of the interaction between HOG1 and cytokinins was examined by ITC (MCSITC, Microcal, Northampton, USA). Three naturally occurring cytokinins (zeatin, benzyladenine and isopentenyl adenine) and thidiazuron (an urea-derived synthetic cytokinin) were used. Additionally, adenosine and NAD were used as control molecules to verify the binding specificity of HOG1 to cytokinins. Data were analyzed by MICROCAL ORIGIN version 2.9 using the best-fit, nonlinear least-squares method for one binding site. The binding stoichiometry (n), and association constant (KA) were calculated from the fitted curves. Subsequently, KD was calculated as 1/KA. Raw heat data were corrected to baseline drift obtained from injections of 0.1 μM purified AHP1 into the sample cell containing 2 μM purified TAP-HOG1. Binding isotherms were created by plotting the heat peak areas against the molar ratio of AHP1 added to HOG1.
Cytokinin binding affinity and thermodynamic analysis of the interaction between HOG1 and cytokinins was examined by ITC (MCSITC, Microcal, Northampton, USA). TAP-HOG1 fusion protein was purified using published protocols (Forler et al. supra) from transgenic Arabidopsis plants harboring the 35S:TAP-HOG1 construct. 0.01 μM benzyladenine (a naturally occurring cytokinin) and 0.1 μM of purified TAP-HOG1 protein were used for each ITC assay with 25 injections (each injection of 2 μl at […] intervals at 37° C.). Data were analyzed with MICROCAL ORIGIN version 2.9 using the best-fit, nonlinear least-squares method for one binding site. The binding stoichiometry (n), and association constant (KA) were calculated from the fitted curves. Subsequently, KD was calculated as 1/KA.

With `c1ccc(CNc2ncnc3nc[nH]c23)cc1` [benzyladenine] the ARR4 fold change ([1]; BA 0.01 μM, 5 min, AS1, ↑ up) was 4.12↑, the ARR4 fold change ([1]; BA 0.01 μM, 5 min, AS8, ↑ up) was 6.1↑ and the ARR4 fold change ([1]; BA 0.01 μM, 5 min, AS21, ↑ up) was 8.01↑. The ARR4 fold change ([1]; BA 0.01 μM, 5 min, OE1, ↓ down) was 5.01↓, the ARR4 fold change ([1]; BA 0.01 μM, 5 min, OE12, ↓ down) was 5.87↓ and the ARR4 fold change ([1]; BA 0.01 μM, 5 min, OE18, ↓ down) was 7.56↓. For the same molecule, the ARR4 fold change ([1]; BA 0.01 μM, 5 min, Wild type, ↑ up) was 3.13↑, the ARR4 fold change ([1]; BA 0.01 μM, 15 min, AS1, ↑ up) was 4.57↑ and the ARR4 fold change ([1]; BA 0.01 μM, 15 min, AS8, ↑ up) was 6.41↑. The ARR4 fold change ([1]; BA 0.01 μM, 15 min, AS21, ↑ up) was 8.39↑, the ARR4 fold change ([1]; BA 0.01 μM, 15 min, OE1, ↓ down) was 4.66↓ and the ARR4 fold change ([1]; BA 0.01 μM, 15 min, OE12, ↓ down) was 5.56↓. The ARR4 fold change ([1]; BA 0.01 μM, 15 min, OE18, ↓ down) was 7.32↓, the ARR4 fold change ([1]; BA 0.01 μM, 15 min, Wild type, ↑ up) was 3.67↑ and the ARR4 fold change ([1]; BA 0.01 μM, 30 min, AS1, ↑ up) was 4.98↑. The ARR4 fold change ([1]; BA 0.01 μM, 30 min, AS8, ↑ up) was 6.86↑, the ARR4 fold change ([1]; BA 0.01 μM, 30 min, AS21, ↑ up) was 8.53↑ and the ARR4 fold change ([1]; BA 0.01 μM, 30 min, OE1, ↓ down) was 4.41↓. For the same molecule, the ARR4 fold change ([1]; BA 0.01 μM, 30 min, OE12, ↓ down) was 5.13↓, the ARR4 fold change ([1]; BA 0.01 μM, 30 min, OE18, ↓ down) was 7.13↓ and the ARR4 fold change ([1]; BA 0.01 μM, 30 min, Wild type, ↑ up) was 3.98↑. For the same molecule, the ARR4 fold change ([1]; BA 0.01 μM, 1 h, AS1, ↑ up) was 5.2↑, the ARR4 fold change ([1]; BA 0.01 μM, 1 h, AS8, ↑ up) was 6.98↑ and the ARR4 fold change ([1]; BA 0.01 μM, 1 h, AS21, ↑ up) was 8.99↑. The ARR4 fold change ([1]; BA 0.01 μM, 1 h, OE1, ↓ down) was 4.01↓, the ARR4 fold change ([1]; BA 0.01 μM, 1 h, OE12, ↓ down) was 4.06↓ and the ARR4 fold change ([1]; BA 0.01 μM, 1 h, OE18, ↓ down) was 6.98↓. The ARR4 fold change ([1]; BA 0.01 μM, 1 h, Wild type, ↑ up) was 4.15↑, the ARR4 fold change ([1]; BA 0.1 μM, 5 min, AS1, ↑ up) was 5.14↑ and the ARR4 fold change ([1]; BA 0.1 μM, 5 min, AS8, ↑ up) was 7.12↑. For the same molecule, the ARR4 fold change ([1]; BA 0.1 μM, 5 min, AS21, ↑ up) was 9.11↑, the ARR4 fold change ([1]; BA 0.1 μM, 5 min, OE1, ↓ down) was 4.56↓ and the ARR4 fold change ([1]; BA 0.1 μM, 5 min, OE12, ↓ down) was 4.91↓. The ARR4 fold change ([1]; BA 0.1 μM, 5 min, OE18, ↓ down) was 6.89↓, the ARR4 fold change ([1]; BA 0.1 μM, 5 min, Wild type, ↑ up) was 4.36↑ and the ARR4 fold change ([1]; BA 0.1 μM, 15 min, AS1, ↑ up) was 5.39↑. For the same molecule, the ARR4 fold change ([1]; BA 0.1 μM, 15 min, AS8, ↑ up) was 7.32↑, the ARR4 fold change ([1]; BA 0.1 μM, 15 min, AS21, ↑ up) was 9.26↑ and the ARR4 fold change ([1]; BA 0.1 μM, 15 min, OE1, ↓ down) was 4.24↓. For the same molecule, the ARR4 fold change ([1]; BA 0.1 μM, 15 min, OE12, ↓ down) was 4.71↓, the ARR4 fold change ([1]; BA 0.1 μM, 15 min, OE18, ↓ down) was 4.72↓ and the ARR4 fold change ([1]; BA 0.1 μM, 15 min, Wild type, ↑ up) was 4.58↑. The ARR4 fold change ([1]; BA 0.1 μM, 30 min, AS1, ↑ up) was 5.69↑, the ARR4 fold change ([1]; BA 0.1 μM, 30 min, AS8, ↑ up) was 7.57↑ and the ARR4 fold change ([1]; BA 0.1 μM, 30 min, AS21, ↑ up) was 9.48↑. The ARR4 fold change ([1]; BA 0.1 μM, 30 min, OE1, ↓ down) was 4.12↓, the ARR4 fold change ([1]; BA 0.1 μM, 30 min, OE12, ↓ down) was 4.59↓ and the ARR4 fold change ([1]; BA 0.1 μM, 30 min, OE18, ↓ down) was 4.36↓. For the same molecule, the ARR4 fold change ([1]; BA 0.1 μM, 30 min, Wild type, ↑ up) was 4.89↑, the ARR4 fold change ([1]; BA 0.1 μM, 1 h, AS1, ↑ up) was 5.98↑ and the ARR4 fold change ([1]; BA 0.1 μM, 1 h, AS8, ↑ up) was 7.99↑. For the same molecule, the ARR4 fold change ([1]; BA 0.1 μM, 1 h, AS21, ↑ up) was 9.83↑, the ARR4 fold change ([1]; BA 0.1 μM, 1 h, OE1, ↓ down) was 3.96↓ and the ARR4 fold change ([1]; BA 0.1 μM, 1 h, OE12, ↓ down) was 4.21↓. The ARR4 fold change ([1]; BA 0.1 μM, 1 h, OE18, ↓ down) was 4.01↓, the ARR4 fold change ([1]; BA 0.1 μM, 1 h, Wild type, ↑ up) was 4.99↑ and the ARR4 fold change ([1]; BA 1.0 μM, 5 min, AS1, ↑ up) was 6.43↑. For the same molecule, the ARR4 fold change ([1]; BA 1.0 μM, 5 min, AS8, ↑ up) was 8.01↑, the ARR4 fold change ([1]; BA 1.0 μM, 5 min, AS21, ↑ up) was 9.93↑ and the ARR4 fold change ([1]; BA 1.0 μM, 5 min, OE1, ↓ down) was 3.76↓. For the same molecule, the ARR4 fold change ([1]; BA 1.0 μM, 5 min, OE12, ↓ down) was 4.19↓, the ARR4 fold change ([1]; BA 1.0 μM, 5 min, OE18, ↓ down) was 3.36↓ and the ARR4 fold change ([1]; BA 1.0 μM, 5 min, Wild type, ↑ up) was 5.1↑. The ARR4 fold change ([1]; BA 1.0 μM, 15 min, AS1, ↑ up) was 6.68↑, the ARR4 fold change ([1]; BA 1.0 μM, 15 min, AS8, ↑ up) was 8.43↑ and the ARR4 fold change ([1]; BA 1.0 μM, 15 min, AS21, ↑ up) was 10.02↑. For the same molecule, the ARR4 fold change ([1]; BA 1.0 μM, 15 min, OE1, ↓ down) was 3.51↓, the ARR4 fold change ([1]; BA 1.0 μM, 15 min, OE12, ↓ down) was 4.01↓ and the ARR4 fold change ([1]; BA 1.0 μM, 15 min, OE18, ↓ down) was 3.21↓. The ARR4 fold change ([1]; BA 1.0 μM, 15 min, Wild type, ↑ up) was 5.31↑, the ARR4 fold change ([1]; BA 1.0 μM, 30 min, AS1, ↑ up) was 6.73↑ and the ARR4 fold change ([1]; BA 1.0 μM, 30 min, AS8, ↑ up) was 8.69↑. For the same molecule, the ARR4 fold change ([1]; BA 1.0 μM, 30 min, AS21, ↑ up) was 10.35↑, the ARR4 fold change ([1]; BA 1.0 μM, 30 min, OE1, ↓ down) was 3.29↓ and the ARR4 fold change ([1]; BA 1.0 μM, 30 min, OE12, ↓ down) was 3.89↓. The ARR4 fold change ([1]; BA 1.0 μM, 30 min, OE18, ↓ down) was 3.01↓, the ARR4 fold change ([1]; BA 1.0 μM, 30 min, Wild type, ↑ up) was 5.59↑ and the ARR4 fold change ([1]; BA 1.0 μM, 1 h, AS1, ↑ up) was 7.01↑. For the same molecule, the ARR4 fold change ([1]; BA 1.0 μM, 1 h, AS8, ↑ up) was 8.93↑, the ARR4 fold change ([1]; BA 1.0 μM, 1 h, AS21, ↑ up) was 10.76↑ and the ARR4 fold change ([1]; BA 1.0 μM, 1 h, OE1, ↓ down) was 3.01↓. For the same molecule, the ARR4 fold change ([1]; BA 1.0 μM, 1 h, OE12, ↓ down) was 3.56↓, the ARR4 fold change ([1]; BA 1.0 μM, 1 h, OE18, ↓ down) was 2.92↓ and the ARR4 fold change ([1]; BA 1.0 μM, 1 h, Wild type, ↑ up) was 5.87↑. The ARR4 fold change ([1]; BA 5.0 μM, 5 min, AS1, ↑ up) was 6.98↑, the ARR4 fold change ([1]; BA 5.0 μM, 5 min, AS8, ↑ up) was 8.98↑ and the ARR4 fold change ([1]; BA 5.0 μM, 5 min, AS21, ↑ up) was 10.43↑. The ARR4 fold change ([1]; BA 5.0 μM, 5 min, OE1, ↓ down) was 3.19↓, the ARR4 fold change ([1]; BA 5.0 μM, 5 min, OE12, ↓ down) was 3.87↓ and the ARR4 fold change ([1]; BA 5.0 μM, 5 min, OE18, ↓ down) was 2.45↓. The ARR4 fold change ([1]; BA 5.0 μM, 5 min, Wild type, ↑ up) was 6.52↑, the ARR4 fold change ([1]; BA 5.0 μM, 15 min, AS1, ↑ up) was 7.01↑ and the ARR4 fold change ([1]; BA 5.0 μM, 15 min, AS8, ↑ up) was 9.07↑. The ARR4 fold change ([1]; BA 5.0 μM, 15 min, AS21, ↑ up) was 10.54↑, the ARR4 fold change ([1]; BA 5.0 μM, 15 min, OE1, ↓ down) was 3.01↓ and the ARR4 fold change ([1]; BA 5.0 μM, 15 min, OE12, ↓ down) was 3.62↓. The ARR4 fold change ([1]; BA 5.0 μM, 15 min, OE18, ↓ down) was 2.18↓, the ARR4 fold change ([1]; BA 5.0 μM, 15 min, Wild type, ↑ up) was 6.69↑ and the ARR4 fold change ([1]; BA 5.0 μM, 30 min, AS1, ↑ up) was 7.23↑. The ARR4 fold change ([1]; BA 5.0 μM, 30 min, Wild type, ↑ up) was 6.89↑, the “ARR1 and ARR2 transcript levels” value [2] was “not significantly affected” and the Kd [3] was 20.6 nM.
